Laboratory results published in patent publication US20190336460A1, “C[…] ACID OR PHARMACEUTICALLY ACCEPTABLE SALT THEREOF AS ACTIVE INGREDIENT FOR PREVENTING OR TREATING OBESITY OR METABOLIC SYNDROMES CAUSED BY OBESITY” (KOREA FOOD RESEARCH INSTITUTE, priority 2016, published 2019).
Values joined by “and” are separate entries in the source; they are usually repeats but may differ in a detail not shown here. Identical values can stand only once.

Tests used:
epididymal fat cells = test: Size measurement of epididymal fat cells (H&E staining, Image J); assay type: in vivo, mouse; conditions: C57BL/6J mice, high-fat diet 13 weeks, oral, 10 mmol; compared among groups and with high-fat diet control group
Description: (§1) In the present experiment, five-week-old C57BL/6J mice were purchased from Saeron Bio (Uiwang, Korea), and acclimated for 1 week before use in the experiment. The rearing room was controlled to have a temperature of 20±2° C., a humidity of 55±10%, and a light/darkness cycle of 12 hours during the experimental period. The experimental animals were divided into 6 groups according to the randomized block design, after 1-week of normal diet. The experimental groups were classified into Group A (normal diet group; n=10), Group B (high-fat diet control group; n=10), Group C (high-fat diet+sodium formate 10 mmol; n=9), Group D (high-fat diet+sodium butyrate 10 mmol; n=9), Group E (high-fat diet+sodium propionate 10 mmol; n=8), and Group F (high-fat diet+sodium acetate 10 mmol; n=4).
(§2) Water and feed were freely accessible. Groups A and B were orally administered with physiological saline, and the other groups were orally administered with corresponding organic acids once a day (2 μg/g bodyweight). For the test groups, obesity was induced by a high-fat diet for 13 weeks, and a high-fat diet (D12492; 60% of the calories) purchased from Research Diet (USA) was used in the experiment.
The immobilized tissue was sliced into 18 μm using a cryostat microtome, and fat cells were stained by hematoxylin and eosin (H&E) fat staining. The fat cells were decolorized using 60% isopropanol after the staining, and then imaged using a digital camera under a microscope. For size analysis of fat cells, the area of fat cells was measured using Image J Software (National Institute of Health, Maryland, USA).

[1] = test system: high-fat diet-induced obesity experimental animals (C57BL/6J mice); test: Organ weights (fat tissues, prostate, liver, spleen) in high-fat diet-induced obesity mice; assay type: in vivo, mouse; conditions: high-fat diet 13 weeks, 10 mmol; for Brown fat weight / Epididymal fat weight / Kidney fat weight / Subcutaneous fat weight: oral once a day, mean ± S.D.
Description: as §1, §2
(§3) The body weights of the experimental animals were measured at a fixed time once a week during the experiment. The experimental animals were fasted for 12 hours before sacrifice, and blood was collected from eyes of the experimental animals anesthetized with ether. In order to prevent the coagulation of the blood after collection, the blood was placed in anti-coagulation tubes and left in an ice bath for 20 min. The collected blood samples were centrifuged at 3000 rpm for 10 min to separate serum therefrom, and refrigerated until use in the experiment. Thereafter, the kit through an enzymatic method was purchased from Young Dong Diagnostics (Yong-In, Korea) to measure the levels of blood lipids (triglyceride, cholesterol, HDL-Cholesterol, and LDL-Cholesterol). The organs were extracted, washed with physiological saline, dehydrated with a filter bed, and then weighed.
The kidney fat, epididymal fat, subcutaneous fat, brown fat, prostate, liver, and spleen were extracted immediately after blood collection from the control and experimental groups, and washed with physiological saline, subjected to surface moisture removal, and then weighed.

[2] = test system: high-fat diet-induced obesity experimental animals (C57BL/6J mice); test: Body weight change in high-fat diet-induced obesity mice orally given organic acid salts; assay type: in vivo, mouse; conditions: for average body weight after 13 weeks of rearing / reduction in body weight gain compared with the high-fat diet control group: C57BL/6J mice, high-fat diet 13 weeks, oral once a day; for average body weight after 13 weeks of rearing: 10 mmol (2 μg/g bodyweight); for reduction in body weight gain compared with the high-fat diet control group: 10 mmol
Description: as §1, §2, §3
The high-fat diet-induced obesity experimental animals (C57BL/6J mice) were orally administered with each 10 mmol corresponding organic acid for 13 weeks, and the weights of the mice were measured once a week during the rearing.

[3] = test system: high-fat diet-induced obesity experimental animals (C57BL/6J mice); test: Blood analysis: serum lipid concentrations in high-fat diet-induced obesity mice; assay type: in vivo, mouse; conditions: for serum Cholesterol / serum HDL / serum LDL / serum Triglyceride / content of cholesterol, reduction compared with the high-fat diet control group / serum triglyceride, lower value compared with the high-fat diet control group: C57BL/6J mice, high-fat diet 13 weeks, 10 mmol; for serum Cholesterol / serum HDL / serum LDL / serum Triglyceride: oral once a day, 12 h fasted, mean ± S.D.; for content of cholesterol, reduction compared with the high-fat diet control group / serum triglyceride, lower value compared with the high-fat diet control group: oral; for LDL-cholesterol content compared with the high-fat diet control group (in words): mouse, in vivo
Description: as §1, §2, §3

[4] = administered orally; cited from earlier work
[5] = oral, no significant difference

Row | SMILES | epididymal fat cell size (in words) (epididymal fat cells) | Brown fat weight [1] | Epididymal fat weight [1] | Kidney fat weight [1] | Subcutaneous fat weight [1] | weight of epididymal fat, lower value compared with the high-fat diet control group ([1]; oral) [%] | average body weight after 13 weeks of rearing [2] [g] | serum Cholesterol [3] | serum HDL [3] | serum LDL [3] | serum Triglyceride [3] | content of cholesterol, reduction compared with the high-fat diet control group [3] [%] | weight of subcutaneous fat, lower value compared with the high-fat diet control group ([1]; oral) [%] | reduction in body weight gain compared with the high-fat diet control group [2] [%] | LDL-cholesterol content compared with the high-fat diet control group (in words) [3] | serum triglyceride, lower value compared with the high-fat diet control group [3] [%] | further results
1 | CC(=O)[O-].[Na+] [acetate, sodium acetate] | smaller in that order of butyrate, propionate, formate, and acetate | 0.11 ± 0.03^A g | 2.31 ± 0.45^AB g | 0.66 g and 0.81 ± 0.07^BAB g | 1.74 ± 0.31^A g | 7.6 | 41.08 | 114.86 ± 3.76^A mg/dl | 61.09 ± 2.21^A mg/dl | 32.34 ± 1.44^A mg/dl | 155.21±5.43 mg/dl and 155.21 ± 5.43^A mg/dl | 7.8 |  |  |  |  | weight of brown fat, higher value compared with the high-fat diet control group [1, 5]: 22.22%; weight of subcutaneous fat, higher value compared with the high-fat diet control group [1, 5]: 10.13%; body weight compared with the high-fat diet control group (in words) ([2]; after 13 weeks, p<0.05): no significant difference; serum triglyceride compared with the high-fat diet control group (in words) ([3]; p<0.05): significantly higher value
2 | CCCC(=O)[O-].[Na+] [butyrate, sodium butyrate] | smaller in that order of butyrate, propionate, formate, and acetate | 0.09 ± 0.04^A g | 2.00 ± 0.29^B g | 0.71 ± 0.12^BC g | 1.16 g and 1.16 ± 0.25^B g | 20 | 31.25 | 95.63 ± 3.87^B mg/dl | 55.99 ± 0.43^B mg/dl | 24.95 ± 1.23^D mg/dl | 128.01±14.72 mg/dl and 128.01 ± 14.72^B mg/dl |  | 26.58 | 15.6 | lower values |  | 
3 | O=C[O-].[Na+] [formate, sodium formate] | smaller in that order of butyrate, propionate, formate, and acetate | 0.09 ± 0.03^A g | 2.01 ± 0.24^B g | 0.72 g and 0.72 ± 0.08^BC g | 1.08 g and 1.08 ± 0.21^B g | 19.6 | 36.78 | 79.00 ± 2.81^C mg/dl | 41.51 ± 3.56^D mg/dl | 26.24 ± 0.29^CD mg/dl | 99.48±14.18 mg/dl and 99.48 ± 14.18^C mg/dl | 36.6 | 31.16 | 10.4 | lower values | 23.54 | oral amount causing no side effect in the human body [4]: up to 10 g
4 | CCC(=O)[O-].[Na+] [propionate, sodium propionate] | smaller in that order of butyrate, propionate, formate, and acetate | 0.09 ± 0.02^A g | 1.91 ± 0.44^B g | 0.71 g and 0.66 ± 0.09^C g | 1.07 g and 1.07 ± 0.24^B g | 23.6 | 30.05 | 95.63 ± 5.41^B mg/dl | 50.12 ± 1.69^C mg/dl | 30.41 ± 0.51^B mg/dl | 120.68±10.07 mg/dl and 120.68 ± 10.07^B mg/dl |  | 32.27 | 18.3 |  | 7.2 | 
